# pEC50: −log10 of the molar value.
# Key:
# [1] = biological target: T1, mGluR4 (Homo sapiens, UniProt Q14833); assay: mGluR4 potentiation assay (Table I): response to EC20 agonist in presence of compound; type: cell-based; conditions: for pEC50: potentiation of mGluR4 agonist response
# Target sequence in this assay (Q14833 whole entry): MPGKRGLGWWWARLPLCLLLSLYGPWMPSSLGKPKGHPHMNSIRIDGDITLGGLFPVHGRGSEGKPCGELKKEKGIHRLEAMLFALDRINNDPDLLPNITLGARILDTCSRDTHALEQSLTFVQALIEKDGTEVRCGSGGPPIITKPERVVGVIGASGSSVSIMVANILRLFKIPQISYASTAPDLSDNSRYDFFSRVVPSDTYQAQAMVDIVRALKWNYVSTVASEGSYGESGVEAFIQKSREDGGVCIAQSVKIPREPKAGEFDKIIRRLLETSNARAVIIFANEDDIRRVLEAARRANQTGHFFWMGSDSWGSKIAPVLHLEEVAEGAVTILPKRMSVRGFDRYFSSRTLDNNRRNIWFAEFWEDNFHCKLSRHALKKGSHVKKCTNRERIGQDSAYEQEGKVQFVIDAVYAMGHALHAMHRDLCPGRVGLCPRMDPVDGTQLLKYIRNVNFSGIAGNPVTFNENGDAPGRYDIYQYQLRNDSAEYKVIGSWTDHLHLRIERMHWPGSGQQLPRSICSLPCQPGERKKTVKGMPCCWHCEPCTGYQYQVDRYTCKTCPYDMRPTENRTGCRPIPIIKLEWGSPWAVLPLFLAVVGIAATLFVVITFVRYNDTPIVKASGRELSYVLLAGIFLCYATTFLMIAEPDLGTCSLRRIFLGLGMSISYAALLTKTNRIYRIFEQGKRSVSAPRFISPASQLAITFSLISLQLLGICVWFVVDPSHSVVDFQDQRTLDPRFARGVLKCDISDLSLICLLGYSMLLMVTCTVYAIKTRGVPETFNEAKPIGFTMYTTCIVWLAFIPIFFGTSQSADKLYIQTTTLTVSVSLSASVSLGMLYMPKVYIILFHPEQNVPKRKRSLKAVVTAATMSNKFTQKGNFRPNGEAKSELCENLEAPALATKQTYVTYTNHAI
# [2] = biological target: T1, mGluR4; assay: human mGluR4 potentiation in transfected CHO cells, Ca2+-sensitive fluorescent dye; type: cell-based; design: expressed in transfected cells; host or cells: CHO cells; conditions: unit inferred, read-out: hEC50
# Target sequence in this assay (Q14833 33-912): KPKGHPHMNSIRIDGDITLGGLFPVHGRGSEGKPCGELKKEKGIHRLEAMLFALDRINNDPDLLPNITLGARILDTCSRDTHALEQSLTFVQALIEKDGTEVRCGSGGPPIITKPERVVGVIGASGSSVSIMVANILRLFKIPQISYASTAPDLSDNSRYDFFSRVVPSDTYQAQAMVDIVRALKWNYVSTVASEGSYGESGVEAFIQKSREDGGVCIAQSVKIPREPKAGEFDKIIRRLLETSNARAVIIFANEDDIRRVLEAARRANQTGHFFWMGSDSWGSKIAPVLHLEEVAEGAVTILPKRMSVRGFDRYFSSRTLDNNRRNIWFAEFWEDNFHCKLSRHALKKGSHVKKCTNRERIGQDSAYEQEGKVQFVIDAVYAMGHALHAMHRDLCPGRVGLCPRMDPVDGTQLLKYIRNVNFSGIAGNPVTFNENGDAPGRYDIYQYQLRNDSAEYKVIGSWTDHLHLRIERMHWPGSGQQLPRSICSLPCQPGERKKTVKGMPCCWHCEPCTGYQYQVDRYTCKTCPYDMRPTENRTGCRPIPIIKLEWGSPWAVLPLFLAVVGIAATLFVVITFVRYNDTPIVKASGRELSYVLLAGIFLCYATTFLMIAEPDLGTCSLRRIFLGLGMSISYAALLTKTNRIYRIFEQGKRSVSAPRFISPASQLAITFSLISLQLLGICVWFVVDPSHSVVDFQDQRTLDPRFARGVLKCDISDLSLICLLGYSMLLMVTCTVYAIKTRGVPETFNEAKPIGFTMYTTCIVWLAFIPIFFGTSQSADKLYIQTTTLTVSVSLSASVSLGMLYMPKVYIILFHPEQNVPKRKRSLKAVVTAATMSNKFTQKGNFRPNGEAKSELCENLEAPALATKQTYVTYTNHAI
% Glu Max ([1]; maximum extent of potentiation) [%],pEC50 [1],"Emax ([1]; maximum extent of potentiation, read-out: % Glu Max) [%]",pEC50 [2],Compound
90,6.69,,,O=C(Nc1ccn(S(=O)(=O)c2ccccc2OC(F)(F)F)c1)c1ccccn1 [Example 7]
151,6.79,,,O=C(Nc1ccn(S(=O)(=O)c2ccc(OC(F)F)cc2)c1)c1ccccn1 [Example 16]
30,6.59,,,CC(C)Cc1ccc(S(=O)(=O)n2ccc(NC(=O)c3ccccn3)c2)cc1 [Example 17]
93,6.26,,,O=C(Nc1ccn(S(=O)(=O)c2ccc(OC(F)(F)F)cc2)c1)c1ccccn1 [Example 18]
137,6.55,,,O=C(Nc1ccn(S(=O)(=O)c2ccc(F)cc2)c1)c1ccccn1 [Example 19]
189,5.71,,,O=C(Nc1ccn(S(=O)(=O)C2CCCCC2)c1)c1ccccn1 [Example 22]
85,6.38,,,O=C(Nc1ccn(S(=O)(=O)c2ccc(C(F)(F)F)cc2)c1)c1ccccn1 [Example 23]
140,6.23,,,O=C(Nc1ccn(S(=O)(=O)Cc2cccc(F)c2)c1)c1ccccn1 [Example 24]
117,5.76,,,O=C(Nc1ccn(S(=O)(=O)Cc2cccc(C(F)(F)F)c2)c1)c1ccccn1 [Example 27]
161,6.33,,,O=C(Nc1ccn(S(=O)(=O)Cc2ccccc2F)c1)c1ccccn1 [Example 29]
206,6.35,,,O=C(Nc1ccn(S(=O)(=O)Cc2ccc(Cl)cc2Cl)c1)c1ccccn1 [Example 31]
159,6.73,,,O=C(Nc1ccn(S(=O)(=O)Cc2ccc(F)cc2F)c1)c1ccccn1 [Example 32]
159,6.08,,,O=C(Nc1ccn(S(=O)(=O)Cc2ccc(Cl)c(Cl)c2)c1)c1ccccn1 [Example 34]
158,6.81,,,O=C(Nc1ccn(S(=O)(=O)Cc2ccc(C(F)(F)F)cc2)c1)c1ccccn1 [Example 37]
,,85,,"O=C(Nc1ccn(S(=O)(=O)c2ccccc2Cl)c1)c1ccccc1 [Example 46, N-(1-(2-chlorophenylsulfonyl)-1H-pyrrol-3-yl)benzamide]"
,,,6.46,"Cc1ccc(S(=O)(=O)n2ccc(NC(=O)c3nccs3)c2)cc1 [Example 51, N-(1-tosyl-1H-pyrrol-3-yl)thiazole-2-carboxamidc]"
,,,6.40,"CC(c1ccccc1F)S(=O)(=O)n1ccc(NC(=O)c2ccccn2)c1 (stereo not shown) [Example 99, N-(1-((1-(2-fluorophenyl)ethyl)sulfonyl)-1H-pyrrol-3-yl)picolinamidc]"
,,,5.89,"Cc1ccnc(S(=O)(=O)n2ccc(NC(=O)c3ccccn3)c2)c1 [Example 117, N-(1-((4-mcthylpyridin-2-yl)sulfonyl)-1H-pyrrol-3-yl)picolinamide]"
,,,6.60,"Cc1cc(S(=O)(=O)n2ccc(NC(=O)c3ccccn3)c2)cnc1Cl [Example 119, N-(1-((6-chloro-5-metliylpyridin-3-yl)sulfonyl)-1H-pyrrol-3-yl)picolinamide]"
,,,6.18,"O=C(Nc1ccn(S(=O)(=O)c2ccc(C(F)(F)F)nc2)c1)c1ccccn1 [Example 120, N-(1-((6-(trifluoromethyl)pyricIin-3-yl)sulfonyl)-1H-pyrrol-3-yl)picolinamide]"
,,,6.59,"Cc1ccc(S(=O)(=O)n2ccc(NC(=O)c3ccccn3)c2)o1 [Example 142, N-(1-((5-methylruran-2-yl)sulfonyl)-1H-pyrrol-3-yl)picolinamide]"
,,,6.07,"Cc1ccc(S(=O)(=O)n2ccc(NC(=O)c3ccco3)c2)cc1 [Example 165, N-(1-tosyl-1H-pyrrol-3-yl)furan-2-carboxamidc]"

Compound,% Glu Max ([1]; maximum extent of potentiation) [%],pEC50 [1],"Emax ([1]; maximum extent of potentiation, read-out: % Glu Max) [%]",pEC50 [2]
O=C(Nc1ccn(S(=O)(=O)c2cccc(-c3ccccc3)c2)c1)c1ccccn1 [Example 12],122,5.48,,
N#Cc1cccc(S(=O)(=O)n2ccc(NC(=O)c3ccccn3)c2)c1 [Example 13],104,6.55,,
O=C(Nc1ccn(S(=O)(=O)c2cccc(Cl)c2)c1)c1ccccn1 [Example 14],139,6.97,,
Cc1cccc(S(=O)(=O)n2ccc(NC(=O)c3ccccn3)c2)c1 [Example 15],175,7.05,,
Cc1ccc(S(=O)(=O)n2ccc(NC(=O)c3ccccn3)c2)cc1 [Example 20],188,7.24,,
O=C(Nc1ccn(S(=O)(=O)c2ccc(Cl)cc2)c1)c1ccccn1 [Example 21],215,6.18,,
O=C(Nc1ccn(S(=O)(=O)Cc2cccc(Cl)c2)c1)c1ccccn1 [Example 25],132,6.08,,
Cc1ccccc1CS(=O)(=O)n1ccc(NC(=O)c2ccccn2)c1 [Example 28],164,5.95,,
O=C(Nc1ccn(S(=O)(=O)Cc2ccccc2Cl)c1)c1ccccn1 [Example 30],163,7.08,,
Cc1ccc(CS(=O)(=O)n2ccc(NC(=O)c3ccccn3)c2)cc1C [Example 33],178,6.67,,
O=C(Nc1ccn(S(=O)(=O)Cc2cc(Cl)cc(Cl)c2)c1)c1ccccn1 [Example 35],156,5.42,,
Cc1cccc(CS(=O)(=O)n2ccc(NC(=O)c3ccccn3)c2)c1 [Example 38],289,5.84,,
"O=C(Nc1ccn(S(=O)(=O)c2ccc3c(c2)CCO3)c1)c1ccccn1 [Example 145, N-(1-((2,3-dihydrobenzoruran-5-yl)sulfonyl)-1H-pyrrol-3-yl)picolinamide]",,,,7.11

# Source: patent US20130338154A1, “MGLUR4 ALLOSTERIC POTENTIATORS, COMPOSITIONS, AND METHODS OF TREATING NEUROLOGICAL DYSFUNCTION” (Vanderbilt University, priority 2009, published 2013)
